{"source": "patent EP3876933B1", "about": "“NEUTROPHIL INFLAMMATION INHIBITOR AND USES THEREOF” (Chang Gung University of Science and Technology, priority 2018, dated 2020)", "key": {"human neutrophils [1]": {"tested_on": "human neutrophils", "test": "Superoxide anion (O2˙-) generation in fMLF/CB-activated human neutrophils (SOD-inhibitable ferricytochrome c reduction)", "type": "cell-based", "conditions": "Neutrophil", "protocol": "(§1) Human neutrophils were obtained in lipopolysaccharide-free conditions by means of dextran sedimentation and Ficoll centrifugation.\nO2˙^- production was determined based on the SOD-inhibitable reduction of ferricytochrome c. Briefly, neutrophils (6 × 10^5/mL) were treated with a candidate compound at 37 °C at various concentrations (0.001 to 10 µM) for 5 min after being supplementing with 0.5 mg/mL ferricytochrome c and 1 mM Ca^2+. Cells were then activated with fMLF (0.1 µM) for 10 min in the pre-process of cytochalasin B (CB, 1 µg/mL) for 3 min. Changes in absorbance with the reduction of ferricytochrome c at 550 nm were continuously monitored in a double-beam, six-cell positioner spectrophotometer with constant stirring (Hitachi U-3010, Tokyo, Japan). Calculations were based on the differences in the reactions with and without SOD (100 U ml^-1) divided by the extinction coefficient for the reduction of ferricytochrome c (ε = 21.1 mM^-1/10 mm)."}, "LPS-induced ALI": {"tested_on": "LPS-induced ALI", "test": "LPS-induced acute lung injury (ALI) in mice (lung MPO activity, H&E, immunohistochemistry)", "type": "in vivo, BALB/c mice", "conditions": "20 mg/Kg intravenous 1 hr before intratracheal LPS (2 mg/Kg), 5 hrs", "protocol": "(§2) Male BALB/c mice aged 7-8 weeks were purchased from BioLASCO (Taipei, Taiwan) and maintained in a room with 12 hr light/dark cycles. Standard laboratory chow and water were available ad libitum. All animal experimental procedures were performed in accordance with guidelines and approved by the Institutional Animal Care and Use Committee of Chang Gung University.\nMice were pre-treated with a candidate compound (e.g., HKI-4971), which was dissolved in 50 µl saline solution containing 10% DMSO and 20% Kolliphor EL (Sigma-Aldrich, USA), by intravenous injection. […]\nLung tissues were homogenized in PBS (50 Mm, pH 6.0) containing 0.5% (w/v) hexadecyltrimethylammonium bromide (HETAB) (Sigma-Aldrich, USA) by using the MagNA Lyser Instrument (Roche, Germany), and was further centrifuged at 12,000 ×g for 20 min at 4°C to remove the insoluble material. The peroxidase activity was measured as the oxidation of o-Dianisidine dihydrochloride (Sigma-Aldrich, USA). […] The absorption was determined spectrophotometrically at 405 nm. […]\nIn this example, the Gram-negative bacterial endotoxin LPS induced ALI in mice was employed to mimic ARDS in human, and the effect of HKI-4971 was evaluated. […]"}, "human neutrophils [2]": {"tested_on": "human neutrophils", "test": "Elastase release in fMLF/CB-activated human neutrophils (Methoxysuccinyl-Ala-Ala-Pro-Val-p-nitroanilide substrate)", "type": "cell-based", "conditions": "Neutrophil", "protocol": "as §1\nMethoxysuccinyl-Ala-Ala-Pro-Val-p-nitroanilide was employed as the elastase substrate for the determination of elastase release. Briefly, after supplementation with Methoxysuccinyl-Ala-Ala-Pro-Val-p-nitroanilide (100 µM), neutrophils (6 × 10^5/mL) were equilibrated at 37 °C for 2 min and incubated with a candidate compound at various concentrations for 5 min. Cells were then activated with fMLF (0.1 µM) for 10 min in the pre-process of CB (0.5 µg/mL) for 3 min, and changes in absorbance at 405 nm were continuously monitored to evaluate elastase release. Results are expressed as the percentage of elastase release in the drug-free control group, DMSO."}, "[3]": {"tested_on": "imiquimod-induced psoriasis", "test": "Imiquimod-induced psoriasis-like skin inflammation in mice (phenotype, H&E, immunohistochemistry)", "type": "in vivo, BALB/c mice", "conditions": "20 mg/kg intraperitoneal, 30 min before 5% IMQ cream, every day for 7 days", "protocol": "as §2\n(§3) Male BALB/c mice aged 7-8 weeks were used for the development of the imiquimod-induced psoriatic-like plaque model. The dorsal skin of the mice were shaved and received a daily topical dose of 62.5 mg of 5% imiquimod (IMQ) cream (Aldara, MEDA Pharma, Sweden) with or without a test compound (e.g., HKI-4971) treatment by intraperitoneal injection for 7 consecutive days.\nTissue samples were fixed in 10% neutral buffered formalin and embedding in paraffin blocks. Sections of the samples were prepared at 5 µm thickness and stained with hematoxylin and eosin (H&E). For immunohistochemistry staining, the sections were incubated with primary antibodies against Ly6g, MPO, and ki67 then the secondary antibody was applied for the detection of the primary antibody according to the manufacturer's instructions of the SuperPicture Polymer Detection Kit (Thermo Fisher, USA). Finally, the section slides were subsequently stained with DAB chromogen and counterstained with hematoxylin. […]"}, "[4]": {"test": "Liver and kidney function (blood ALT, AST, BUN, creatinine) in imiquimod-induced mice", "type": "in vivo, BALB/c mice", "conditions": "HKI-4971 20 mg/kg intraperitoneal, alone or in combination with IMQ; n=3", "protocol": "as §3\nIn this example, the effect of HKI-4971 (or compound 13) on the development of psoriasis was investigated using the well-established psoriasis animal model, in which imiquimod (IMQ) was used to induce psoriasis-like skin inflammation. Briefly, BALB/c mice are pre-treated by intraperitoneal injection of HKI-4971 (20 mg/kg) for 30 min before 5% IMQ cream was topically administered onto the back of the mice every day for 7 days. Then, skin samples taken from these animals were subjected to microscopy examination and immunohistochemistry staining, while blood samples were subjected to analysis for liver and kidney functions. Results are depicted in FIGs 1 to 3.\nBlood samples taken from IMQ- or IMQ+HKI-4971 treated animals were analyzed for the levels of alanine aminotransferase and aspartate transaminase, which were used as indicators for assessing liver function; and the levels of blood […] nitrogen (BUN) and creatinine (CRE), which were used as indicators for assessing the kidney function. […]"}, "[5]": {"conditions": "at 10 µM concentration, FMLP/CB-induced human neutrophils, mean ± S.E.M. (n = 3-5)"}}}
{"compound": "Cn1nc(N)c2c(Nc3ccc(O)cc3)nc3ccccc3c21", "note": "[Compound 13, 4-(4-Hydroxyanilino)-1-methyl-1H-pyrazolo[4,3-c]quinolin-3-amine]", "values": [{"measurement": "IC50", "setting": "human neutrophils [1]; Homo sapiens, neutrophils in response to fMLF, Table 2, read-out: IC50 for suppressing the superoxide anion generation", "result": "~3.7", "unit": "nM"}, {"measurement": "IC50", "setting": "human neutrophils [1]; FMLP/CB-induced human neutrophils, mean ± S.E.M. (n = 3-5), read-out: Superoxide Anion IC50", "result": "3.69 ± 1.74", "unit": "nM"}, {"measurement": "inhibition at 10 µM", "setting": "human neutrophils [1]; [5]", "result": "88.1 ± 1.19", "unit": "%"}, {"measurement": "LPS-induced neutrophil infiltration and lung injury (H&E and neutrophil markers in lung sections)", "setting": "LPS-induced ALI", "result": "significantly alleviated"}, {"measurement": "MPO activity in lung tissues", "setting": "LPS-induced ALI; n=3", "result": "suppressed"}, {"measurement": "IC50", "setting": "human neutrophils [2]; Homo sapiens, neutrophils in response to fMLF, Table 2, read-out: IC50 for suppressing elastase release", "result": "~32", "unit": "nM"}, {"measurement": "IC50", "setting": "human neutrophils [2]; FMLP/CB-induced human neutrophils, mean ± S.E.M. (n = 3-5), read-out: Elastase Release IC50", "result": "32.1 ± 17.4", "unit": "nM"}, {"measurement": "inhibition at 10 µM", "setting": "human neutrophils [2]; [5]", "result": "105 ± 2.53", "unit": "%"}, {"measurement": "markers for cell proliferation (ki-67) and for neutrophils (Ly6g and MPO), immunostaining of skin samples", "setting": "[3]", "result": "reduced"}, {"measurement": "severity or progression of IMQ-induced psoriasis", "setting": "[3]", "result": "reduce the severity or progression"}, {"measurement": "functions of liver or kidney (alanine aminotransferase, aspartate transaminase, BUN, CRE in blood)", "setting": "[4]", "result": "did not result in significant damage"}]}
